This note sets out measurements from patent US20090042964A1, “AMINO-5-[SUBSTITUTED-4-(DIFLUOROMETHOXY)PHENYL]-5-PHENYLIMIDAZOLONE COMPOUNDS AS BETA-SECRETASE INHIBITORS” (Wyeth, priority 2007, published 2009).

Like-named read-outs stand apart in the source and are kept apart here.

This assay deals with human BACE1 (Homo sapiens, UniProt P56817). Description: Fluorescent kinetic assay, evaluation of BACE1 binding affinity of test compounds. Format: biochemical. Particulars: 10 nM human BACE1, 25 μM substrate WABC-6, pH 4.5, room temperature. The essentials:
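Kinetic fluorescence assay: enzyme added last to inhibitor and substrate mix, reading started immediately; substrate at 100 μM working dilution (25 μL in 100 μL total). Buffer 66.7 mM Na-acetate pH 4.5 with 0.0667% CHAPS for inhibitor and enzyme dilutions; enzyme stock quantified at 280 nm.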

human BACE1, sequence (P56817 46-501): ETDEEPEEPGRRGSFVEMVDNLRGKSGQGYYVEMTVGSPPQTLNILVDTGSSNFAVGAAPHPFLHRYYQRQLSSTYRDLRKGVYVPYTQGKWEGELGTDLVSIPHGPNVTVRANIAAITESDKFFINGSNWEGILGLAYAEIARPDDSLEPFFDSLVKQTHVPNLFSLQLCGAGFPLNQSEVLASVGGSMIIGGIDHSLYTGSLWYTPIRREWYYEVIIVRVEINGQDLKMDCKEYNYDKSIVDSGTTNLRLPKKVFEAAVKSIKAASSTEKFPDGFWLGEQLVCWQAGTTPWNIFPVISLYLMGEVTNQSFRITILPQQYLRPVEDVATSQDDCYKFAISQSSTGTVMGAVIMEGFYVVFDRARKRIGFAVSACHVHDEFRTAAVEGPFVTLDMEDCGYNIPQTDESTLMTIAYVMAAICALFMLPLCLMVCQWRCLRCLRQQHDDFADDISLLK

For `Cc1cc([C@]2(c3ccc(F)c(C#CCCF)c3)N=C(N)N(C)C2=O)ccc1OC(F)F` [Example 205, (5R)-2-amino-5-[4-(difluoromethoxy)-3-methylphenyl]-5-[4-fluoro-3-(4-fluorobut-1-yn-1-yl)phenyl]-3-methyl-3,5-dihydro-4H-imidazol-4-one], the IC50 (read-out: BACE1 IC50) was less than 0.1 µM. Same read-out and setting: as for `Cc1cc(C2(c3ccc(F)c(OCCCF)c3)N=C(N)N(C)C2=O)ccc1OC(F)F` (stereo not drawn) [Example 108, 2-Amino-5-[4-(difluoromethoxy)-3-methylphenyl]-5-[4-fluoro-3-(3-fluoropropoxy)phenyl]-3-methyl-3,5-dihydro-4H-imidazol-4-one], the figure is less than 0.1 µM; as for `Cc1cc(C2(c3cccc(C#CCF)c3)N=C(N)N(C)C2=O)ccc1OC(F)F` (stereo not drawn) [Example 196, 2-amino-5-[4-(difluoromethoxy)-3-methylphenyl]-5-[3-(3-fluoroprop-1-yn-1-yl)phenyl]-3-methyl-3,5-dihydro-4H-imidazol-4-one], less than 0.1 µM. Still for that read-out and setting: under `CN1C(=O)C(c2ccc(F)c(C#CC3CC3)c2)(c2ccc(OC(F)F)c(CCF)c2)N=C1N` (stereo not drawn) [Example 92, 2-amino-5-[3-(cyclopropylethynyl)-4-fluorophenyl]-5-[4-(difluoromethoxy)-3-(2-fluoroethyl)phenyl]-3-methyl-3,5-dihydro-4H-imidazol-4-one] stands less than 0.1 µM. As to `CN1C(=O)C(c2ccccc2)(c2ccc(OC(F)F)c(C3CC3)c2)N=C1N` (stereo not drawn) [Example 10, 2-Amino-5-[3-cyclopropyl-4-(difluoromethoxy)phenyl]-3-methyl-5-phenyl-3,5-dihydro-4H-imidazol-4-one], under “BACE1 IC50 μM”, the IC50 was less than 0.1 µM. For `CN1C(=O)C(c2ccc(F)c(C#CCF)c2)(c2ccc(OC(F)F)c(C3CC3)c2)N=C1N` (stereo not drawn) [Example 210, 2-amino-5-[3-cyclopropyl-4-(difluoromethoxy)phenyl]-5-[4-fluoro-3-(3-fluoroprop-1-yn-1-yl)phenyl]-3-methyl-3,5-dihydro-4H-imidazol-4-one], the IC50 (read-out: BACE1 IC50) is less than 0.1 µM. As to `CCCc1cc([C@]2(c3ccccc3)N=C(N)N(C)C2=O)ccc1OC(F)F` (single isomer, unassigned) [Example 79], the IC50 (read-out: BACE1 IC50) is less than 0.1 µM. Still for that read-out and setting: as for `COC/C=C/c1cccc(C2(c3ccc(OC(F)F)c(C)c3)N=C(N)N(C)C2=O)c1` (stereo not drawn) [Example 62, 2-Amino-5-[4-(difluoromethoxy)-3-methylphenyl]-5-[3-((E)-3-methoxyprop-1-enyl)phenyl]-3-methyl-3,5-dihydro-4H-imidazol-4-one], the figure is less than 0.1 µM; as for `COCCC#Cc1cccc([C@@]2(c3ccc(OC(F)F)c(C4CC4)c3)N=C(N)N(C)C2=O)c1` (single isomer, unassigned) [Example 185], less than 0.1 µM. The same measure, in the same setting: under `CCCC#Cc1cccc(C2(c3ccc(OC(F)F)c(C4CC4)c3)N=C(N)N(C)C2=O)c1` (stereo not drawn) [Example 172, 2-amino-4-(3-cyclopropyl-4-(difluoromethoxy)phenyl)-1-methyl-4-(3-(pent-1-ynyl)phenyl)-1H-imidazol-5(4H)-one] stands 0.11 to 1 µM; under `Cc1cc(C2(c3cccc(OCCC(F)F)c3)N=C(N)N(C)C2=O)ccc1OC(F)F` (stereo not drawn) [Example 126, 2-Amino-5-[4-(difluoromethoxy)-3-methylphenyl]-5-[3-(3,3-difluoropropoxy)phenyl]-3-methyl-3,5-dihydro-4H-imidazol-4-one], less than 0.1 µM. On the same count and under the same terms, under `CN1C(=O)[C@@](c2ccc(F)c(OCC(F)F)c2)(c2ccc(OC(F)F)c(C3CC3)c2)N=C1N` [Example 124, (5S)-2-Amino-5-[3-cyclopropyl-4-(difluoromethoxy)phenyl]-5-[3-(2,2-difluoroethoxy)-4-fluorophenyl]-3-methyl-3,5-dihydro-4H-imidazol-4-one] stands greater than 1 µM; under `CN1C(=O)C(c2cccc(C#CCCF)c2)(c2ccc(OC(F)F)c(C3CC3)c2)N=C1N` (stereo not drawn) [Example 211, 2-amino-5-[3-cyclopropyl-4-(difluoromethoxy)phenyl]-5-[3-(4-fluorobut-1-yn-1-yl)phenyl]-3-methyl-3,5-dihydro-4H-imidazol-4-one], less than 0.1 µM. Consider `CN1C(=O)[C@@](c2ccc(F)c(C#CCCF)c2)(c2ccc(OC(F)F)c(C3CC3)c2)N=C1N` [Example 214, (5S)-2-amino-5-[3-cyclopropyl-4-(difluoromethoxy)phenyl]-5-[4-fluoro-3-(4-fluorobut-1-yn-1-yl)phenyl]-3-methyl-3,5-dihydro-4H-imidazol-4-one], for which the IC50 (read-out: BACE1 IC50) is greater than 1 µM. Still for that read-out and setting: under `CN1C(=O)[C@](c2cccc(C#CCCCF)c2)(c2ccc(OC(F)F)c(C3CC3)c2)N=C1N` (single isomer, unassigned) [Example 192] stands less than 0.1 µM; under `COCC#Cc1cccc([C@@]2(c3ccc(OC(F)F)c(C)c3)N=C(N)N(C)C2=O)c1` [Example 69, (5S)-2-Amino-4-(4-(difluoromethoxy)-3-methylphenyl)-4-(3-(3-methoxyprop-1-ynyl)phenyl)-1-methyl-1H-imidazol-5(4H)-one], less than 0.1 µM. Consider “2-Amino-5-[4-(difluoromethoxy)-3-(fluoromethyl)phenyl]-3-methyl-5-phenyl-3,5-dihydro-4H-imidazol-4-one [Example 14]”, for which the IC50 (read-out: BACE1 IC50) fell in the range of 0.11 to 1 µM. Still for that read-out and setting: as for `Cc1cc([C@@]2(c3ccc(F)c(OCC4CC4)c3)N=C(N)N(C)C2=O)ccc1OC(F)F` [Example 107, (5S)-2-Amino-5-[3-(cyclopropylmethoxy)-4-fluorophenyl]-5-[4-(difluoromethoxy)-3-methylphenyl]-3-methyl-3,5-dihydro-4H-imidazol-4-one], the figure is greater than 1 µM; as for `CN1C(=O)C(c2cccc(C3CC3)c2)(c2ccc(OC(F)F)c(C3CC3)c2)N=C1N` (stereo not drawn) [Example 187, 2-amino-4-(3-cyclopropyl-4-(difluoromethoxy)phenyl)-4-(3-cyclopropylphenyl)-1-methyl-1H-imidazol-5(4H)-one], 0.11 to 1 µM. For `CCc1cc([C@]2(c3ccc(F)c(C#CCF)c3)N=C(N)N(C)C2=O)ccc1OC(F)F` [Example 162, (5R)-2-Amino-5-[4-(difluoromethoxy)-3-ethylphenyl]-5-[4-fluoro-3-(3-fluoroprop-1-yn-1-yl)phenyl]-3-methyl-3,5-dihydro-4H-imidazol-4-one], the half-inhibitory concentration (IC50) (read-out: BACE1 IC50) is less than 0.1 µM. Still for that read-out and setting: as for `CCC#Cc1cc([C@]2(c3ccc(OC(F)F)c(C)c3)N=C(N)N(C)C2=O)ccc1F` (single isomer, unassigned) [Example 84], the figure is 0.11 to 1 µM; as for `CN1C(=O)C(c2ccc(OC(F)F)c(Cl)c2)(c2ccc(F)c(OCC(F)F)c2)N=C1N` (stereo not drawn) [Example 100, 2-Amino-5-[3-chloro-4-(difluoromethoxy)phenyl]-5-[3-(2,2-difluoroethoxy)-4-fluorophenyl]-3-methyl-3,5-dihydro-4H-imidazol-4-one], less than 0.1 µM; as for `CN1C(=O)[C@](c2ccc(F)c(C#CCCF)c2)(c2ccc(OC(F)F)c(C3CC3)c2)N=C1N` [Example 215, (5R)-2-amino-5-[3-cyclopropyl-4-(difluoromethoxy)phenyl]-5-[4-fluoro-3-(4-fluorobut-1-yn-1-yl)phenyl]-3-methyl-3,5-dihydro-4H-imidazol-4-one], less than 0.1 µM. Still for that read-out and setting: under `CCCOc1cc(C2(c3ccc(OC(F)F)c(C)c3)N=C(N)N(C)C2=O)ccc1F` (stereo not drawn) [Example 114, 2-Amino-5-[4-(difluoromethoxy)-3-methylphenyl]-5-(4-fluoro-3-propoxyphenyl)-3-methyl-3,5-dihydro-4H-imidazol-4-one] stands less than 0.1 µM.

Broadly, the IC50 is the concentration that gives 50% inhibition.
